{"source": "patent US11505537B2", "about": "“Compositions comprising methylphenidate-prodrugs, processes of making and using the same” (KemPharm, Inc., priority 2016, dated 2022)", "key": {"[1]": {"experiment": "Oral PK in rats of d- and l-isomers (unconjugated MPH, L-Ser and L-Thr conjugates) at equimolar doses", "details": "for d:l Ratio Tmax / d:l Ratio AUC / d:l Ratio Cmax: d-isomer vs l-isomer; for d:l Ratio AUC: mean AUC; for d:l Ratio Cmax: mean Cmax; for Cmax: equimolar doses", "description": "In another embodiment, the following compounds were dosed orally in rats at equimolar doses: d-MPH.HCl, l-MPH.HCl, d-MPH-CO2CH2-nicotinoyl-L-Ser, l-MPH-CO2CH2-nicotinoyl-L-Ser, d-MPH-CO2CH2-nicotinoyl-L-Thr, and l-MPH-CO2CH2-nicotinoyl-L-Thr."}, "[2]": {"experiment": "Human single- and multiple-dose PK of d-MPH HCl/conjugate dose mixtures vs Concerta 54 mg, once daily for 7 days, fasted", "type": "in vivo", "text": "Forty-eight (48) healthy volunteers (12 per treatment arm) were enrolled in this open-label, single- and multiple-dose, four-treatment, one-period parallel PK trial.\nEligible subjects included healthy male and female volunteers between the age of 18 and 55 years with a body mass index (BMI) between 18 and 32 kg/m^2 and a body weight between 60 and 100 kg at screening. The primary objective of the study was to assess the single and multiple dose pharmacokinetics of d-MPH-CO2CH2-nicotinoyl-L-Ser and d-methylphenidate following multiple doses of different combinations of d-methylphenidate HCl/d-MPH-CO2CH2-nicotinoyl-L-Ser Chloride administered orally once per day for 7 days in healthy volunteers under fasted conditions, compared to the same dosing regimen with a Concerta® tablet. After the 1st dose of study drug (Day 1), blood samples for PK were collected at pre-dose (0 hour; within 1 hour prior to dosing), and at 0.5, 1, 1.5, 2, 2.5, 3, 4.5, 6, 7, 7.5, 8, 8.5, 9, 10, 12, 13, and 24 hours±5 minutes post-dose. The 24-hr post-dose blood sample was taken before administration of the 2nd dose of study drug. After the 2nd, 3rd, 4th, 5th and 6th dose of study drug (Days 2-6), blood samples were collected at pre-dose (within 10 minutes prior to dosing), and at 1.5 and 8 hours±5 minutes post-dose. The pre-dose sample on Day 2 was the same as the 24-hour post-dose sample after the 1st dose. After the last dose (7th dose) of study drug (Day 7), blood samples for PK were collected at pre-dose (within 10 minutes prior to dosing), and at 0.5, 1, 1.5, 2, 2.5, 3, 4.5, 6, 7, 7.5, 8, 8.5, 9, 10, 12, 13, 24, 36, 48, 60 and 72 hours±5 minutes post-dose."}, "[3]": {"experiment": "Human single-dose PK of 60 mg d-MPH-CO2CH2-nicotinoyl-L-Ser chloride capsules, fasted and fed", "type": "in vivo", "details": "for AUC(0-inf) / half-life / AUC(0-t) / Tmax / Cmax: both sexes, plasma, analyte d-MPH-CO2CH2-nicotinoyl-L-Ser; for Tmax: read-out: Tmax (median)", "description": "A human study was conducted to evaluate the pharmacokinetics of d-MPH-CO2CH2-nicotinoyl-L-Ser and d-methylphenidate after oral administration of 60 mg d-MPH-CO2CH2-nicotinoyl-L-Ser chloride gelatin capsules in healthy volunteers under fasted and fed conditions. Fourteen (14) subjects were enrolled in this phase 1, open-label, single dose, two-period, randomized, crossover study. Eligible subjects included healthy male and female volunteers between the age of 18 and 55 years with a body mass index (BMI) between 18 and 32 kg/m^2 and a body weight between 50 and 100 kg at screening.\nTwo single-dose treatments were administered with a minimum 96-hour washout period between doses. Blood samples for pharmacokinetics were collected pre-dose and at 0.5, 0.75, 1, 1.5, 2, 2.5, 3, 3.5, 4.5, 6, 8, 10, 12, 16, 24, and 36 hours±5 minutes post-dose, in each treatment period."}, "[4]": {"experiment": "Human single-dose PK of 32 mg d-MPH-CO2CH2-nicotinoyl-L-Ser oral liquid, fasted", "details": "single 32 mg oral liquid", "text": "Twenty-four (24) healthy volunteers were enrolled in this open-label, single-dose, two-treatment, two-period PK trial."}, "[5]": {"experiment": "Intravenous PK in rats, conjugate vs unconjugated d-methylphenidate", "type": "in vivo", "details": "analyte d-methylphenidate"}, "[6]": {"experiment": "Intranasal PK in rats, conjugate vs unconjugated d-methylphenidate", "type": "in vivo", "details": "analyte d-methylphenidate", "description": "(§1) The plasma concentrations of d-methylphenidate were measured by LC-MS/MS over time. The oral plasma concentrations of d-methylphenidate released from d-threo-MPH-CO2CH2-nicotinoyl-L-Ser were compared with unconjugated d-methylphenidate after oral administration in rats.\nAs shown in FIG. 5 and Table 10, after 4.75 mg conjugate was intranasally administered to rats, plasma concentrations of d-methylphenidate released from the conjugate are substantially flat from about 0 to about 1 hour following intranasal administration in a rat. […] Conjugated d-methylphenidate was about 6% AUC and 5% Cmax of unconjugated d-methylphenidate."}, "[7]": {"experiment": "Oral PK in rats, conjugate vs unconjugated d-methylphenidate (LC-MS/MS)", "type": "in vivo", "details": "analyte d-methylphenidate, […] d-MPH content, hydrochloride", "description": "as §1\nThe human equivalent dose for the conjugate was 0.8 mg/kg as compared to 0.4 mg/kg for unconjugated d-methylphenidate."}, "[8]": {"experiment": "Solubility in IPA/IPAc inferred from recrystallization", "type": "physicochemical", "details": "isopropylalcohol/isopropylacetate, from recrystallization yields", "text": "In one embodiment, the conjugate d/l-MPH-CO2CH2-nicotinoyl-L-Ser was recrystallized from a mixture (1:1) of isopropylalcohol (IPA) and isopropylacetate (IPAc) yielding approximately 45.2% of product (purity of about 98% by HPLC). A similar amount of d-MPH-CO2CH2-nicotinoyl-L-Ser recrystallized from IPA and IPAc (2:1) yielded approximately 81.5% of product (purity of about 97.6% by HPLC)."}}, "note": "Where a name gives a salt, the structure may show the parent alone. Read-outs that look alike come from different tables or passages of the source."}
{"smiles": "COC(=O)C(c1ccccc1)C1CCCCN1C(=O)OC[n+]1cccc(C(=O)N[C@@H](CO)C(=O)[O-])c1", "note": "(stereo partly drawn) [MPH-CO2CH2-nicotinoyl-L-Ser]", "values": [{"measurement": "d:l Ratio Tmax", "setting": "[1]", "result": 182, "unit": "%"}, {"measurement": "d:l Ratio AUC", "setting": "[1]", "result": 73, "unit": "%"}, {"measurement": "d:l Ratio Cmax", "setting": "[1]", "result": 94, "unit": "%"}]}
{"smiles": "COC(=O)C(c1ccccc1)C1CCCCN1C(=O)OC[n+]1cccc(C(=O)N[C@H](C(=O)[O-])[C@@H](C)O)c1", "note": "(stereo partly drawn) [MPH-CO2CH2-nicotinoyl-L-Thr]", "values": [{"measurement": "d:l Ratio Tmax", "setting": "[1]", "result": 57, "unit": "%"}, {"measurement": "d:l Ratio AUC", "setting": "[1]", "result": 53, "unit": "%"}, {"measurement": "d:l Ratio Cmax", "setting": "[1]", "result": 58, "unit": "%"}]}
{"smiles": "COC(=O)[C@H](c1ccccc1)[C@H]1CCCCN1C(=O)OC[n+]1cccc(C(=O)N[C@@H](CO)C(=O)O)c1.[Cl-]", "note": "[d-MPH-CO2CH2-nicotinoyl-L-Ser chloride, 3-((S)-1-carboxy-2-hydroxyethylcarbamoyl)-1-(((R)-2-(2-(R)-methoxy-2-oxo-1-phenylethyl)piperidine-1-carbonyloxy)methyl)pyridium chloride]", "values": [{"measurement": "concentration at 24 h", "setting": "[2]; both sexes, human, plasma, oral dose mixtures, adult humans, FIGS. 14-25, read-out: Plasma concentration of intact d-MPH-CO2CH2-nicotinoyl-L-Ser chloride at 24 hours post dose", "result": "< 1", "unit": "ng/mL"}, {"measurement": "Accumulation of intact d-MPH-CO2CH2-nicotinoyl-L-Ser chloride in the bloodstream after the 7th dose", "setting": "[2]; dose 1 vs dose 7 plasma concentrations at 24 hours", "result": "negligible"}, {"measurement": "Time until which plasma concentrations of intact d-MPH-CO2CH2-nicotinoyl-L-Ser chloride increased", "setting": "[2]; oral dose mixtures, adult humans, FIGS. 14-25", "result": "about 2 hours"}, {"measurement": "peak d-MPH exposure in the fed state vs fasted", "setting": "[3]; analyte d-MPH, single oral 60 mg", "result": "slightly higher"}, {"measurement": "AUC(0-inf)", "setting": "[3]; human, oral, 60 mg, Fasted", "result": 309, "unit": "ng·h/mL"}, {"measurement": "half-life", "setting": "[3]; human, oral, 60 mg, Fasted", "result": 350, "unit": "min"}, {"measurement": "AUC(0-t)", "setting": "[3]; human, oral, 60 mg, Fasted, read-out: AUC0-24 hr", "result": 300, "unit": "ng·h/mL"}, {"measurement": "AUC(0-t)", "setting": "[3]; human, oral, 60 mg, Fasted, read-out: AUC0-last", "result": 306, "unit": "ng·h/mL"}, {"measurement": "Tmax", "setting": "[3]; human, oral, 60 mg, Fasted", "result": 0.5, "unit": "h"}, {"measurement": "AUC(0-inf)", "setting": "[3]; human, oral, 60 mg, Fed", "result": 84.2, "unit": "ng·h/mL"}, {"measurement": "Cmax", "setting": "[3]; human, oral, 60 mg, Fed", "result": 10.2, "unit": "ng/mL"}, {"measurement": "half-life", "setting": "[3]; human, oral, 60 mg, Fed", "result": 366, "unit": "min"}, {"measurement": "AUC(0-t)", "setting": "[3]; human, oral, 60 mg, Fed, read-out: AUC0-24 hr", "result": 77.9, "unit": "ng·h/mL"}, {"measurement": "AUC(0-t)", "setting": "[3]; human, oral, 60 mg, Fed, read-out: AUC0-last", "result": 81.1, "unit": "ng·h/mL"}, {"measurement": "Tmax", "setting": "[3]; human, oral, 60 mg, Fed", "result": 3, "unit": "h"}, {"measurement": "Cmax", "setting": "[3]; Fasted, single oral 60 mg, human adults", "result": 75.6, "unit": "ng/mL"}]}
{"smiles": "COC(=O)[C@H](c1ccccc1)[C@H]1CCCCN1C(=O)OC[n+]1cccc(C(=O)N[C@@H](CO)C(=O)O)c1", "note": "[d-MPH-CO2CH2-nicotinoyl-L-Ser, d-methylphenidate-CO2CH2-nicotinoyl-L-Ser]", "values": [{"measurement": "Plasma concentration of intact prodrug at 24 hours post dose", "setting": "[4]", "result": "about 0"}, {"measurement": "Time until which plasma concentrations of intact prodrug increased", "setting": "[4]; N=24", "result": "about 2 hours"}]}
{"smiles": "COC(=O)[C@H](c1ccccc1)[C@H]1CCCCN1C(=O)OC[n+]1cccc(C(=O)N[C@H](C(=O)O)[C@@H](C)O)c1.[Cl-]", "note": "[d-MPH-CO2CH2-nicotinoyl-L-Thr, 3-(((1S,2R)-1-carboxy-2-hydroxypropyl)carbamoyl)-1-(((R)-2-(2-(R)-methoxy-2-oxo-1-phenylethyl)piperidine-1-carbonyloxy)methyl)pyridium chloride]", "values": [{"measurement": "d:l Ratio AUC", "setting": "[1]", "result": "~53", "unit": "%"}, {"measurement": "d:l Ratio Cmax", "setting": "[1]", "result": "about 58%"}]}
{"smiles": "COC(=O)[C@H](c1ccccc1)[C@H]1CCCCN1.Cl", "note": "[d-MPH•HCl, (2R,2′R)-(+)-Methylphenidate hydrochloride]", "values": [{"measurement": "AUC0-1 h", "setting": "[5]", "result": 312.6, "unit": "ng·h/mL"}, {"measurement": "AUC0-2 h", "setting": "[5]", "result": 534.9, "unit": "ng·h/mL"}, {"measurement": "Cmax", "setting": "[5]", "result": 541.8, "unit": "ng/mL"}, {"measurement": "Tmax", "setting": "[5]", "result": 24, "unit": "min"}, {"measurement": "AUC", "setting": "[1]; analyte d-MPH", "result": 119.2, "unit": "ng·h/mL"}, {"measurement": "Tmax", "setting": "[1]; analyte d-MPH", "result": 24, "unit": "min"}, {"measurement": "Cmax", "setting": "[1]; analyte d-MPH", "result": 98.9, "unit": "ng/mL"}, {"measurement": "d:l Ratio AUC", "setting": "[1]", "result": "~124", "unit": "%"}, {"measurement": "d:l Ratio Cmax", "setting": "[1]", "result": "about 192%"}, {"measurement": "AUC0-1 h", "setting": "[6]", "result": 1110.8, "unit": "ng·h/mL"}, {"measurement": "Cmax", "setting": "[6]", "result": 2561.6, "unit": "ng/mL"}, {"measurement": "Tmax", "setting": "[6]", "result": 6, "unit": "min"}, {"measurement": "Tmax", "setting": "[7]", "result": 24, "unit": "min"}, {"measurement": "Tmax", "setting": "[7]; listed as unconjugated d-methylphenidate", "result": "about 0.4 h"}]}
{"smiles": "COC(=O)[C@@H](c1ccccc1)[C@@H]1CCCCN1C(=O)OC[n+]1cccc(C(=O)N[C@@H](CO)C(=O)[O-])c1", "note": "[l-MPH-CO2CH2-nicotinoyl-L-Ser]", "values": [{"measurement": "solubility in IPA/IPAc compared to d-MPH-CO2CH2-nicotinoyl-L-Ser", "setting": "[8]", "result": "significantly higher"}]}
{"smiles": "COC(=O)[C@@H](c1ccccc1)[C@@H]1CCCCN1", "note": "[l-MPH•HCl]", "values": [{"measurement": "AUC", "setting": "[1]; analyte l-MPH", "result": 96.4, "unit": "ng·h/mL"}, {"measurement": "Tmax", "setting": "[1]; analyte l-MPH", "result": 42, "unit": "min"}, {"measurement": "Cmax", "setting": "[1]; analyte l-MPH", "result": 51.5, "unit": "ng/mL"}]}
{"smiles": "COC(=O)C(c1ccccc1)C1CCCCN1", "note": "(stereo not drawn) [unconjugated MPH, methyl 2-phenyl-2-(piperidin-2-yl)acetate]", "values": [{"measurement": "d:l Ratio Tmax", "setting": "[1]", "result": 62, "unit": "%"}]}
